Laboratory results as given in ChEMBL document CHEMBL5728191, “Inhibitors of cyclin-dependent kinase 7 (CDK7)” (2020).

Biological target: CDK7/Cyclin H/MNAT1 (Homo sapiens, UniProt P50613)
Assay: Inhibition of Kinase Activity: Compounds of the invention were assayed for activity against a variety of different kinases.
Format: protein-complex assay

CDK7/Cyclin H/MNAT1, sequence (P51946 whole entry): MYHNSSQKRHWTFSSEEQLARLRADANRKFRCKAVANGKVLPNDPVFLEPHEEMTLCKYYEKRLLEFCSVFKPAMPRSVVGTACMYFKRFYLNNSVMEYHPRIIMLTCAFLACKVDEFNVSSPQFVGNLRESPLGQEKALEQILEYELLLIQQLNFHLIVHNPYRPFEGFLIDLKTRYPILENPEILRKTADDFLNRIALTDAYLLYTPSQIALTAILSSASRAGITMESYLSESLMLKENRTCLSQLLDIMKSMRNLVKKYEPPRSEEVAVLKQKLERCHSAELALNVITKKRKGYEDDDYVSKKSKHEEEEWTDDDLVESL
CDK7/Cyclin H/MNAT1, sequence (P50613 whole entry): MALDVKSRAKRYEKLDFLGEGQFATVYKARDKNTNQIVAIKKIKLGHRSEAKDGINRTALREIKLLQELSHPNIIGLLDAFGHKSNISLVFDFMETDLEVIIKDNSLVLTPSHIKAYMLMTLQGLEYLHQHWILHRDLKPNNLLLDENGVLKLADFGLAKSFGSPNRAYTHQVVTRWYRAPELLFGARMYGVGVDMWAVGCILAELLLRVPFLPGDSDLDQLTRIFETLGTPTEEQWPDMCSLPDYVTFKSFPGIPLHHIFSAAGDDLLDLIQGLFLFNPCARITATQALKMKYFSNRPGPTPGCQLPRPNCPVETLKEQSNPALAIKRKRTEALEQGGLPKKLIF
CDK7/Cyclin H/MNAT1, sequence (P51948 whole entry, further chain): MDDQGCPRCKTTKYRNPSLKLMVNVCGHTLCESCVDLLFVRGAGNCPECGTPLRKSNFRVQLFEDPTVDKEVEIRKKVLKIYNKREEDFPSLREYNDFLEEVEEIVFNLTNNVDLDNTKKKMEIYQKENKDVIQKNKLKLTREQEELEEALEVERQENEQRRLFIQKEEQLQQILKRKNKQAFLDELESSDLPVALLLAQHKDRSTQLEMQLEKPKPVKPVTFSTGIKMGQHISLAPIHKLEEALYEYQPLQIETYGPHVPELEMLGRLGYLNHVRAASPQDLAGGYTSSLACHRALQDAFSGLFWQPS

IC50: > 500 nM
Compound: C=CC(=O)Nc1ccc(C(=O)Nc2nn(C)c3c2CN(C(=O)NC(C)CN(C)C)C3(C)C)cc1 (stereo unspecified)
